Reference: US20130172294A1, “Treatment with VB-201” (Vascular Biogenics Ltd., priority 2010, published 2013)
Where two headings read alike, the source gives them in different places.

Key:
interleukin-23 (IL-23) = experiment: Plasma cytokine assay, IL-23 (Example 5); assay type: in vivo, human
Protocol: Acquisition of samples was performed using FacsCalibur (Becton Dickinson).

C-reactive protein (CRP) = system: C-reactive protein (CRP)
Protocol: C-reactive protein (CRP) levels in plasma samples were measured using a CRP Latex assay kit (Olympus) and an AU400® immuno-analyzer (Olympus).
A randomized, double-blind, placebo-controlled study was performed to in order to investigate the safety, tolerability and pharmacokinetics of VB-201 at a repeated, daily dose taken orally. The subjects were all healthy volunteers. Cohorts of six subjects each received a daily dose of 40 or 80 mg VB-201 in the morning, following at least 10 hours of fasting, for 14 days. 6 subjects received a placebo. The VB-201 was formulated in non-enterocoated capsules.
Further studies were performed on an additional cohort, which included six subjects receiving a daily dose of 80 mg VB-201, as described hereinabove, for 28 days. An additional two subjects received a placebo.
Plasma samples obtained on day 0 (pre-dosing) and on day 14 from the subjects in each cohort (40 mg for 14 days, 80 mg for 14 days, and 80 mg for 28 days), and on day 28 from the subjects of the cohort receiving 80 mg VB-201 for 28 days, were assayed for C-reactive protein (CRP) by the high sensitivity CRP assay described hereinabove.

[1] = Safety and tolerability of single dose (Example 1); assay type: in vivo, human; details: single oral dose 1-50 mg
Text: Safety and tolerability of VB-201 was judged by evaluating the incidence of abnormal findings in the following measurements: vital signs: systolic and diastolic blood pressure, heart rate, respiratory rate, body temperature; physical examination; 12-lead electrocardiogram; laboratory tests of blood samples for: complete blood count, prothrombin time/partial thromboplastin time, LDL- and HDL-cholesterol, total cholesterol, triglycerides, glucose, blood urea nitrogen, sodium, potassium, creatinine, calcium, phosphorus, creatinine phosphokinase, lactate dehydrogenase, aspartate transaminase, alanine transaminase, γ-glutamyl transferase, alkaline phosphatase, protein, albumin, total bilirubin, total IgM and IgG antibodies, interleukin-12/23 p40, tumor necrosis factor-α, and interleukin-6, as well as routine urinalysis; and all adverse events, whether or not considered serious, and whether or not considered related to the investigational agent, according to the criteria for Good Clinical Practice. Treatment-emergent adverse events were defined as any adverse event that started on or after administration of the first dose of VB-201, and no more than 30 days after administration of the last dose, or are ongoing at the time of the first dose and worsened in severity or frequency during treatment. […] All subjects were healthy male volunteers. Five cohorts of six subjects each received a single dose of 1, 3, 10, 30 or 50 mg VB-201. 10 subjects received a placebo. The VB-201 was formulated in gelatin capsules enterocoated with Eudragit®.

CCCCCCCCCCCCCCCCOCC(COP(=O)([O-])OCC[N+](C)(C)C)OCCCCC(=O)O (centres unmarked) [VB-201, 1-hexadecyl-2-(4′-carboxybutyl)-glycerol-3-phosphocholine]
IL-23 plasma levels (interleukin-23 (IL-23); 40 mg per day, 14 days, both subjects with detectable pre-dose IL-23): considerably reduced | IL-23 plasma levels (interleukin-23 (IL-23); 80 mg per day, 28 days, all three subjects): considerably reduced | reduction of plasma CRP levels (C-reactive protein (CRP); 40 mg per day for 14 days): 49% | reduction of plasma CRP levels (C-reactive protein (CRP); 80 mg per day for 14 days): 43% | reduction of plasma CRP levels (C-reactive protein (CRP); 80 mg per day for 28 days): 45% | electrocardiogram findings [1]: None of the subjects which received VB-201 had clinically significant electrocardiogram findings | safety profile [1]: comparable safety profile of VB-201 to a placebo | serious adverse events [1]: No serious adverse events occurred
